{"source": "patent US12089593B2", "about": "“Compositions and methods for treating and preventing dust mite infestation” (EVOLVA SA, priority 2016, dated 2024)", "test_system": "Dust mite Dermataphagoides farinae", "test": "Laboratory bioassay: dust mite susceptibility to nootkatone on treated filter paper envelopes", "type": "in vivo", "text": "This example describes a laboratory bioassay in which groups of dust mites were exposed to a solution of the product to determine dust mite susceptibility to nootkatone.\nOne milliliter of a 1% (wt/vol) nootkatone in ethanol formulation was applied directly to 9 cm discs of filter paper by pipette. The filter papers were allowed to dry completely and were cut to the appropriate size prior to the start of the test. Pure ethanol was used as a control.\nTreated and untreated (ethanol-treated only) filter papers were cut into 2.5 inch (6.35 cm) squares and folded into envelopes to serve as containers for the test. Five replicates of 35 dust mites were tested per treatment. After the mites were placed inside, the openings were sealed using clips so that the mites could not escape.\nDust mites were only observed after 72 hours post-introduction to the test containers, due to their small size, and the likelihood of loss of mites during handling. […] Results", "key": {"[1]": {"details": "72 hours post introduction, filter paper treated with 1 mL of 1% (wt/vol) nootkatone in ethanol, dried, five replicates of 35 adult mixed-sex mites"}}, "data": [{"compound": "C=C(C)[C@@H]1CCC2=CC(=O)C[C@@H](C)[C@]2(C)C1", "note": "[Nootkatone, nootkatone]", "values": [{"measurement": "state of mites after exposure (175 total mites)", "setting": "72 hours of exposure to filter papers treated with 1% nootkatone in ethanol", "result": "all dead"}, {"measurement": "Means Affected", "setting": "[1]", "result": 100.0, "unit": "%"}, {"measurement": "Means Dead", "setting": "[1]", "result": 100.0, "unit": "%"}, {"measurement": "Means KD (knockdown)", "setting": "[1]", "result": 0.0, "unit": "%"}, {"measurement": "mortality rates of dust mites", "setting": "dust mites exposed to low concentrations of nootkatone", "result": 100, "unit": "%"}]}]}
